Test results from patent publication US12391647B2, “Benzamide compound and preparation method, use, and pharmaceutical composition thereof” (INSTITUTE OF MATERIA MEDICA, CHINESE ACADEMY OF MEDICAL …, priority 2018, dated 2025).
Marks after values point to notes of the source that are not given here.

Key:
[1] = system: human prostate cancer cell DU145; assay: MTT assay, survival rate of tumor cells (antiproliferative activity); type: cell-based; settings: DU-145, 72 h, read-out: Antiproliferative activity against human prostate cancer cell DU145, IC50
Description: DU145 cells (human prostate cancer cells) in logarithmic growth phase were digested with 0.25% trypsin-EDTA to prepare single cell suspension, which was inoculated into 96-well plate overnight according to 1500 cells/well/100 μL, and fresh medium containing different concentrations of compounds to be tested and corresponding solvent control was added, and 100 μL (DMSO final concentration <0.1%) was added to each well, and the 96-well plate was further cultured at 37° C. for 72 h. 20 μL of freshly prepared PBS solution containing 5 mg/mL MTT was added to each well, and the 96-well plate was further cultured for 4 h. After the supernatant was discarded, 180 μL of DMSO was added to each well to dissolve the MTT formazan precipitate. After the 96-well plate was shaked and mixed by a micro oscillator, the optical density (OD) at the detection wavelength of 570 nm was measured. With DMSO-treated tumor cells as the control group, the inhibition rate on the growth of tumor cells of the compound to be tested was calculated from the following formula, and the IC50 was calculated according to the median-effect equation. Inhibition rate (%)=(average OD value of control group-average OD value of dosing group)/average OD value of control group×100%

STAT3 transcription = assay: STAT3 specific luciferase double reporter gene experiment in DU145 cells; type: cell-based, human; settings: for STAT3 transcription inhibition activity: DU145, STAT3 specific luciferase double reporter; for IC50: Homo sapiens, DU-145, DU145 with high STAT3 expression, 24 h
Description: The luciferase plasmids STAT3-TA-Luc and pGMLR-TK were transiently co-transfected into DU145 cells by Lipofectamine 3000. After staying overnight, different concentrations of compounds to be tested were added and cultured for 24 hours. The supernatant was discarded, and the residue was washed twice with PBS, and then 20 μL of lysis solution was added to shake and lyse for 5 min. The supernatant was transferred to a 96-well Costar whiteplate, and 70 μL of Dual-Glo luciferase substrate solution was added, and the relative fluorescence intensity of firefly luciferase was detected, and then 70 μL of Stop-Glo substrate solution was added, and the relative fluorescence intensity of sea kidney luciferase was detected, the normalized value was obtained, and the inhibition rate and IC50 value were calculated.

p-STAT3 (Tyr705) = assay: Western blotting of p-STAT3 expression in DU145 cells; type: cell-based, human
Description: DU145 cells treated for 16 h with different concentrations of examples 12, 23, 33 and 34 and DU145 cells in control group were collected and washed twice with pre-cooled PBS. After appropriate amount of RIPA lysate (50 mM Tris-HCl, 1 mM EDTA, 1% Triton X-100, 150 mM NaCl, 0.1% SDS, 1 mM NaF, Na3VO4, protease inhibitor, pH 7.4) was added to lyse for 1 h on ice, the reaction mixture was centrifuged at 4° C., 12,000 rpm for 20 min, and then the supernatant was collected for protein quantification and boiled for denaturation. Equal amount of protein was taken for 10% SDS-PAGE electrophoresis. The specific antibodies of p-STAT3 (Tyr705) and STAT3 were used as primary antibody, which was incubated overnight at 4° C. The corresponding HRP-labeled secondary antibody was used, incubated at room temperature for 2 h, and washed. ECL chemiluminescence substrate reaction solution was added to develop in gel imaging system, and the image was saved. (3-actin was used as internal reference.

[2] = system: xenograft tumor of human prostate cancer DU145; assay: Xenotransplantation efficacy study in nude mice; type: in vivo; settings: for Tumor growth inhibition: oral, DU145 xenograft; for inhibitory effect on the growth of xenograft tumor: subcutaneous DU145 xenograft
Description: Tumor cells of human prostate cancer DU145 were collected under aseptic conditions, and the cell density was adjusted to 1×10^6 cells/mL with sterilized normal saline, and then 0.2 mL of which was inoculated subcutaneously in the axillary back of nude mice. When the tumor grew to 1 cm in diameter, it was taken out under aseptic conditions, cut into tumor blocks with the size of 1 mm×1 mm, and inoculated subcutaneously in the axillary back of nude mice. Two weeks later, after the tumor grew to 100˜300 mm^3, the animals were randomly divided into groups and began to be administered (recorded as day 0). The compound to be tested is administered orally. The animals were weighed twice a week and the length and width of tumor were measured with vernier caliper. After the experiment, the nude mice were dislocated and killed, and the tumor tissues were stripped, weighed and photographed. Finally, the tumor inhibition rate was calculated, and the anti-tumor effect was evaluated by the tumor inhibition rate. The results are shown in tables 3 and 4 and FIGS. 2 and 3.
The tumor volume is calculated according to the following formula:
Tumor volume=(a×b^2)/2, where a and b represent the length and width of tumor respectively.
The tumor growth inhibition percentage is calculated according to the following formula: tumor growth inhibition (%)=(1−T/C)×100, T is the tumor volume of group of the compound to be tested, and C is the tumor volume of the solvent control group.

SMILES | IC50 [1] [nM] | STAT3 transcription inhibition activity (STAT3 transcription) | IC50 (STAT3 transcription) [nM] | inhibitory activity on STAT3 phosphorylation (p-STAT3 (Tyr705); DU145, 1 μM concentration) | Tumor growth inhibition ([2]; 10 mg/kg × 7 times) | Tumor growth inhibition ([2]; 20 mg/kg × 7 times) | Tumor growth inhibition ([2]; 40 mg/kg × 7 times) | inhibitory effect on the growth of xenograft tumor [2] | inhibitory activity on STAT3 phosphorylation (p-STAT3 (Tyr705); DU145, 0.5 μM concentration) | Tumor growth inhibition ([2]; 20 mg/kg × 14 times) [%] | Tumor growth inhibition ([2]; 40 mg/kg × 11 times) | inhibitory activity on STAT3 phosphorylation (p-STAT3 (Tyr705); DU145, 0.1 μM concentration) | Tumor growth inhibition ([2]; 20 mg/kg × 6 times) | Tumor growth inhibition ([2]; 40 mg/kg × 5 times)
Cc1ccc(S(=O)(=O)Nc2cc(C(=O)NCc3cccnc3)ccc2C)cc1 [Example 1, 4-methyl-3-((4-methylphenyl)sulfonamido)-N-(pyridin-3-ylmethyl) benzamide] | 120 ± 30 | obvious STAT3 transcription inhibition activity | 7000 ± 1300 | obvious inhibitory activity | 58.8*** % | 62.7*** % | 73.5*** % | significant inhibitory effects | – | – | – | – | – | –
CCc1ccc(S(=O)(=O)Nc2cc(C(=O)NCc3cccnc3)ccc2C)cc1 [Example 12, 3-((4-ethylphenyl)sulfonamido)-4-methyl-N-(pyridin-3-ylmethyl)benzamide] | 40 ± 10 | obvious STAT3 transcription inhibition activity | 1000 | – | – | – | – | significant inhibitory effects | obvious inhibitory activity | 40.4 | 79.7*** % | – | – | –
Cc1ccc(C(=O)NCc2cccnc2)cc1NS(=O)(=O)c1ccc(C2CC2)cc1 [Example 23, 3-((4-cyclopropylphenyl)sulfonamido)-4-methyl-N-(pyridin-3-ylmethyl)benzamide] | 50 ± 8 | obvious STAT3 transcription inhibition activity | 1000 | – | – | – | – | – | obvious inhibitory activity | – | – | – | – | –
Cc1ccc(S(=O)(=O)Nc2cc(C(=O)NCc3ccc(C)nc3)ccc2C)cc1 [Example 33, 4-methyl-3-((4-methylphenyl)sulfonamido)-N-((6-methylpyridin-3-yl)methyl)benzamide] | 8 ± 1 | obvious STAT3 transcription inhibition activity | 500 ± 120 | – | – | – | – | significant inhibitory effects | – | – | – | obvious inhibitory activity | 63.0** % | 80.0** %
COc1ccc(CNC(=O)c2ccc(C)c(NS(=O)(=O)c3ccc(C)cc3)c2)cn1 [Example 34, N-((6-methoxypyridin-3-yl)methyl)-4-methyl-3-((4-methylphenyl)sulfonamido)benzamide] | 6 ± 2 | obvious STAT3 transcription inhibition activity | 800 ± 270 | – | – | – | – | – | – | – | – | obvious inhibitory activity | – | –
